Test results taken from US20160084841A1, “Method for Predicting Clinical Effect of Immunotherapy” (INTERNATIONAL INSTITUTE OF CANCER IMMUNOLOGY, INC., priority 2013, published 2016).

Tests used:
[1] = tested on: anti-WT1332 peptide IgG antibody; test: ELISA using variant WT1 antigen peptide as immobilized antigen to assay anti-WT1332 peptide IgG antibody; format: binding, human; conditions: serum diluted 100-fold; titer increased in WT1332-immunized patient, not in unimmunized patient; FIG. 18
Protocol: A vector expressing WT1-frg3 (SEQ ID NO: 57) as a GST-tagged protein was constructed using a pGEX-5X-3 vector (GE Healthcare Japan Corp.). The prepared vector was transferred to competent cells DH5α by heat shock. The vector-transferred E. coli was cultured. At the point in time when the OD600 value became 0.4 to 0.6, isopropyl-β-D-thiogalactoside (IPTG) was added at a final concentration of 1 mM to the medium to induce protein expression. The cells were further cultured for 3 hours. The bacterial cells were collected by centrifugation and then lysed in an SDS sample buffer (0.125 M Tris-HCl, 0.1 M DTT, 4% SDS, 10% sucrose, and bromophenol blue, pH 6.8). This lysate was fractionated on the basis of molecular weights by SDS-PAGE using a disc-type electrophoresis apparatus NA-1800 (Nihon Eido Corp.). A portion of each fraction thus collected by SDS-PAGE was stained with CBB, and a fraction containing WT1 was recovered. The purified protein was dissolved in an immobilizing buffer for ELISA (10 mM NaCO3, 30 mM NaHCO3, and 0.02% NaN3, pH 9.6) and used as an antigen for ELISA.
The GST-WT1 frag1 protein solution (10 ng/μL) was added at 100 μL/well to a 96-well plate for ELISA. The plate was left overnight at 37° C. to immobilize the antigen thereon. After washing with 0.05% TBST, blocking was performed by shaking at room temperature for 2 hours using a blocking buffer (1% gelatin/0.05% TBST). Then, the serum diluted 100-fold with 0.05% TBST was added thereto at 100 μL/well and reacted overnight at 4° C. […] The reaction was terminated with 1 N HCl, and the absorbance at 450 nm was then measured using a microplate reader (CORONA […] MTP-32).
(§1) To a 96-well reaction plate supplied with Peptide Coating Kit (Takara Bio Inc.) having amino groups (—NH2) attached to the bottom surface of the wells, a solution (4 μg/mL) of the WT1 peptide dissolved in a reaction buffer supplied with Peptide Coating Kit was added at 50 μL/well. […] The reaction was terminated with 1 N HCl, and the absorbance at 450 nm was then measured using a microplate reader (CORONA […] MTP-310Lab).

[2] = tested on: malignant glioblastoma patient; test: Anti-WT1332 IgG antibody titer (ELISA) in serum of a patient given WT1332 peptide vaccine; format: in vivo, human; conditions: one patient immunized with WT1332 peptide, FIG. 18
From the text: (§2) From one malignant glioblastoma patient given WT1332 peptide vaccine (SEQ ID NO: 6), a serum sample was obtained before the start of administration of the vaccine, at 4 weeks after the start of administration, and at 1 year and 2 months after the start of administration. From one malignant thymic carcinoma patient given WT1235 peptide vaccine (WT1-CTL peptide (modified mp235-243) (SEQ ID NO: 3)) alone, a serum sample was obtained as a negative control in the same way as above. Each serum sample was stored at −20° C. until assay.
[…] The plate was left overnight at 37° C. to immobilize the antigen thereon. After washing with 0.05% TBST, blocking was performed by shaking at room temperature for 2 hours using a blocking buffer (1% gelatin/0.05% TBST). […] The reaction was terminated with 1 N HCl, and the absorbance at 450 nm was then measured using a microplate reader (CORONA […] MTP-32).
as §1

[3] = tested on: recurrent malignant glioblastoma (GBM) patients; test: Anti-WT1-235 peptide IgG antibody titer (ELISA) in serum of GBM patients given WT1235 peptide vaccine; format: in vivo, human; conditions: 2 months and 3 months after the start of administration compared with before, ELISA antigen WT1-235 peptide, FIG. 1
Protocol: 1-1 WT1 peptide immunotherapy was carried out in 72 GBM patients using WT1235 peptide (WT1-CTL peptide (modified mp235-243) (SEQ ID NO: 3)) as a WT1 peptide vaccine. […]
as §1, with “groups” for “groups (—NH2)”, “WT1-235” for “WT1”
The comparison between two groups was conducted using the Mann-Whitney test. […] The anti-WT1 antigen peptide antibody titer was measured using the serum negative for the anti-WT1 antigen peptide antibody (patient's serum before the start of WT1 peptide immunotherapy) and the average value plus twice the standard deviation=0.045. […]

[4] = tested on: malignant thymic carcinoma patient; test: Anti-WT1332 / anti-WT1235 IgG antibody titer (ELISA) in serum of a patient given WT1235 peptide vaccine; format: in vivo, human
From the text: as §2
The GST-WT1 frag1 protein solution (10 ng/μL) was added at 100 μL/well to a 96-well plate for ELISA. The plate was left overnight at 37° C. to immobilize the antigen thereon. After washing with 0.05% TBST, blocking was performed by shaking at room temperature for 2 hours using a blocking buffer (1% gelatin/0.05% TBST). Then, the serum diluted 100-fold with 0.05% TBST was added thereto at 100 μL/well and reacted overnight at 4° C. The plate was reacted with a peroxidase-labeled goat anti-human IgG antibody (Santa Cruz Biotechnology, Inc.) as a secondary antibody at room temperature for 2 hours. Then, a color was developed using a TMB kit (KPL, Kirkegaard & Perry Laboratories, Inc.). The reaction was terminated with 1 N HCl, and the absorbance at 450 nm was then measured using a microplate reader (CORONA […] MTP-32). […]

[5] = tested on: anti-WT1235 peptide IgG antibody; test: ELISA using variant WT1 antigen peptide as immobilized antigen to assay anti-WT1235 peptide IgG antibody; format: binding, human; conditions: serum of thymic carcinoma patient given WT1235 peptide; increase in titer detected; FIG. 19
Protocol: WK235-243 (SEQ ID NO: 62) and WT237-243 (SEQ ID NO: 63) were synthesized by GL Biochem (Shanghai) Corporation Ltd. WT1-frg2 (SEQ ID NO: 61) was prepared in the same way as in the aforementioned WT1-frg3 (SEQ ID NO: 57).
The measurement of the antibody titer using WT1-frg2 (SEQ ID NO: 61) was performed in the same way as in the aforementioned WT1-frg3 (SEQ ID NO: 57). The measurement of the antibody titer using WK235-243 (SEQ ID NO: 62) or WT237-243 (SEQ ID NO: 63) was performed in the same way as in the aforementioned WT332-347 (SEQ ID NO: 58), etc.

## YFKLSHLQM [WT334-342]
[1]
  ability as ELISA antigen to measure anti-WT1332 IgG antibody level in patient's serum: could measure an anti-WT1332 IgG antibody level in patient's serum

## KRYFKLSHLQMHSRKH [WT1332 peptide]
[2]; ELISA antigen WT1-frg3
  anti-WT1332 IgG antibody titer after immunization: increased
[2]; ELISA antigen WT332-347, WT334-342 or WT332-338
  anti-WT1332 IgG antibody titer after immunization: increased

## CYTWNQMNL (Montanide ISA51 emulsion) [WT1235 peptide vaccine, emulsion with Montanide ISA51]
[3]
  anti-WT1-235 peptide IgG antibody titer after the start of administration: significantly increased
[4]; negative control: one patient immunized with WT1235 peptide alone (unimmunized with WT1332 peptide), ELISA antigen WT1-frg3
  anti-WT1332 IgG antibody titer after immunization: not increased
[4]; one thymic carcinoma patient, serum at 4 weeks and 7 months after start of administration, ELISA antigen WT1-frg2, FIG. 19
  anti-WT1235 IgG antibody titer: increase in anti-WT1235 IgG antibody titer was detected

## KRYFKLSHLQMHSRKH [WT332-347]
[1]
  ability as ELISA antigen to measure anti-WT1332 IgG antibody level in patient's serum: could measure an anti-WT1332 IgG antibody level in patient's serum

## CMTWNQMNK [WK235-243]
[5]
  ability as ELISA antigen to measure anti-WT1235 IgG antibody level in patient's serum: could measure an anti-WT1235 IgG antibody level in patient's serum

## TWNQMNL [WT237-243]
[5]
  ability as ELISA antigen to measure anti-WT1235 IgG antibody level in patient's serum: could measure an anti-WT1235 IgG antibody level in patient's serum

## KRYFKLS [WT332-338]
[1]
  ability as ELISA antigen to measure anti-WT1332 IgG antibody level in patient's serum: could measure an anti-WT1332 IgG antibody level in patient's serum
